Measured values from ChEMBL document CHEMBL5154870, “Discovery of novel glutaminase 1 allosteric inhibitor with 4-piperidinamine linker and aromatic heterocycles” (Eur J Med Chem, 2022).
Activity calls are given as the source filed them. No cut-off for these calls is given here.

Columns and labels:
[1] = Metabolic stability in human plasma assessed as parent compound remaining at 1 uM measured after 2 hrs by LC-MS/MS analysis; type: ADME, cell-free; details: read-out: Stability
[2] = Cmax in Sprague-Dawley rat at 10 mg/kg, ip measured for 72 hrs by LC-MS/MS analysis; type: ADME, organism-based; set-up: dose 10 mg/kg, time 72 hrs, route ip; details: in vivo
[3] = tested on: CT26; assay: Antiproliferative activity against mouse CT26 cells overexpressing GLS1 assessed as inhibition of cell proliferation measured after 72 hrs by MTT assay; type: functional, cell-based; details: CT26, 72 h
[4] = tested on: HCT-116; assay: Induction of apoptosis in human HCT-116 cells assessed as early apoptotic cells at 30 nM measured after 24 hrs by Annexin V-FITC/PI staining based flow cytometry method (reference value: 4.65 %); type: functional
[5] = tested on: HCT-116; assay: Induction of apoptosis in human HCT-116 cells assessed as early apoptotic cells at 50 nM measured after 24 hrs by Annexin V-FITC/PI staining based flow cytometry method (reference value: 4.65 %); type: functional
[6] = tested on: HCT-116; assay: Induction of apoptosis in human HCT-116 cells assessed as early apoptotic cells at 200 nM measured after 24 hrs by Annexin V-FITC/PI staining based flow cytometry method (reference value: 4.65 %); type: functional
[7] = AUC (0 to t) in Sprague-Dawley rat at 5 mg/kg, iv measured for 72 hrs by LC-MS/MS analysis; type: ADME, organism-based; set-up: dose 5 mg/kg, time 72 hrs, route iv; details: in vivo
[8] = AUC (0 to infinity) in Sprague-Dawley rat at 10 mg/kg, ip measured for 72 hrs by LC-MS/MS analysis; type: ADME, organism-based; set-up: dose 10 mg/kg, time 72 hrs, route ip; details: in vivo
[9] = Half life in Sprague-Dawley rat at 10 mg/kg, ip measured for 72 hrs by LC-MS/MS analysis; type: ADME, organism-based; details: in vivo
[10] = Apparent volume of distribution in Sprague-Dawley rat at 5 mg/kg, iv measured for 72 hrs by LC-MS/MS analysis; type: ADME, organism-based; details: in vivo
[11] = Apparent clearance in Sprague-Dawley rat at 10 mg/kg, ip measured for 72 hrs by LC-MS/MS analysis; type: ADME, organism-based; details: in vivo
[12] = Bioavailability in Sprague-Dawley rat at 10 mg/kg, ip measured for 72 hrs by LC-MS/MS analysis; type: ADME, organism-based; details: in vivo
[13] = Toxicity in BALB/c SPF mouse xenografted with human HCT-116 cells assessed as body weight loss at 50 to 100 mg/kg, ip administered BID for 21 days; type: organism-based; details: in vivo, 504 h, dose 50-100 mg/kg, time 21 day
[14] = Toxicity in nude mouse xenografted with human HCT-116 cells assessed as liver damage by measuring edema and atrophy at 50 to 100 mg/kg, ip measured after 21 days by H and E staining based analysis; type: organism-based; details: in vivo, 504 h, dose 50-100 mg/kg, time 21 day
[15] = biological target: T1, Glutaminase kidney isoform, mitochondrial (Homo sapiens) (UniProt O94925); details: HCT-116, filed as negative allosteric modulator, dose 100-300 nM, time 12.0 hrs
T1 sequence (whole entry): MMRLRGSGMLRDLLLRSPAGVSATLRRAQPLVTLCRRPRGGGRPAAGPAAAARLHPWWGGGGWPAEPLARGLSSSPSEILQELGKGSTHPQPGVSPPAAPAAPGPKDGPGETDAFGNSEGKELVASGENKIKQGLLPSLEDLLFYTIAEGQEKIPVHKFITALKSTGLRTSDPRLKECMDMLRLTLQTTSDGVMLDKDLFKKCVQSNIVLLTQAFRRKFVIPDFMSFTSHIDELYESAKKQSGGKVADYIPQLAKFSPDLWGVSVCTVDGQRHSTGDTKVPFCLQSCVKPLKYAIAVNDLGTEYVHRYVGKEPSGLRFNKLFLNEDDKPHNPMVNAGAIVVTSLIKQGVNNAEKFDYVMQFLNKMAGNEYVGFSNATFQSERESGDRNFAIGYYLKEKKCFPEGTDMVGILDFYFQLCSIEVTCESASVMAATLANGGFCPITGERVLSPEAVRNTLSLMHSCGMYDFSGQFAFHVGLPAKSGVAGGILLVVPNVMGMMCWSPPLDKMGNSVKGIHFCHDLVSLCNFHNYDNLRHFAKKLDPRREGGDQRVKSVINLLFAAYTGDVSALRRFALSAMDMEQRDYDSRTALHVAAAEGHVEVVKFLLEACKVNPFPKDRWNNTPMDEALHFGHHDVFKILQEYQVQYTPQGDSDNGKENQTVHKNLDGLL

[16] = biological target: T1, Glutaminase kidney isoform, mitochondrial (Homo sapiens); details: HCT-116, filed as negative allosteric modulator, dose 100-300 nM, time 12.0 hrs; remark: listed apart in the source
[17] = biological target: T1, Glutaminase kidney isoform, mitochondrial (Homo sapiens); details: HCT-116, filed as negative allosteric modulator, dose 100-300 nM, time 12.0 hrs; remark: listed apart in the source
[18] = biological target: T1, Glutaminase kidney isoform, mitochondrial (Homo sapiens); details: HCT-116, filed as negative allosteric modulator, dose 100-300 nM, time 12.0 hrs; remark: listed apart in the source
[19] = biological target: T1, Glutaminase kidney isoform, mitochondrial (Homo sapiens); details: HCT-116, filed as negative allosteric modulator, dose 100-300 nM, time 12.0 hrs; remark: listed apart in the source

remaining at 2 h, 1 µM [1]: 96%
Cmax [2]: 262 ng/mL
IC50 [3]: 320 nM
AUC(0-t) at 72 h [7]: 6930 ng·h/mL
AUC(0-inf) [8]: 3490 ng·h/mL
half-life [9]: 8.92 h
Vd/F [10]: 7.31 L/kg
CL/F [11]: 48.8 mL/min/kg
bioavailability [12]: 20.9%
inhibition [15]: Active
inhibition [16]: Active
inhibition [17]: Active
inhibition [18]: Active
inhibition [19]: Active
SMILES: O=C(Cc1ccccc1)Nc1nnc(NC2CCN(c3nnc(NC(=O)c4nccn4Cc4ccc(C(F)(F)F)cc4)s3)CC2)s1
Activity [4]: 13.6%
Activity [5]: 23.4%
Activity [6]: 82.49%
Activity [13]: Non-Toxic
Activity [14]: Non-Toxic
